Measurements: PubChem BioAssay AID1918958 (Molecular Pharmacology Branch, DTP, NCI, 2023)

Tested on: NCI-H196 complex spheroid viability
Experiment: Anticancer human tumor NCI-H196 cell line growth inhibition [LSD1];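 also: spheroids exposed to agents for 7 days before readout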;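 as to viability, T/C: 100% = DMSO vehicle control viability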
Settings: for IC50: curve of first compound; for viability, T/C: stronger effect = lower value
Summary of the method: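 Multicellular complex spheroids of tumor cells with human endothelial cells (HUVEC) and mesenchymal stem cells; the LSD1 inhibitor iadademstat was combined with standard-of-care or investigational agents. Top concentration at or near clinical Cmax, half-log dilutions; final DMSO ≤0.25%.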

[1] = second compound 0.1 µM, first compound 0.00316 µM
[2] = second compound 0.1 µM, first compound 0.01 µM
[3] = second compound 0.1 µM, first compound 0.0316 µM
[4] = second compound 0.1 µM, first compound 0.1 µM
[5] = second compound 0.316 µM, first compound 0.00316 µM
[6] = second compound 0.316 µM, first compound 0.01 µM
[7] = second compound 0.316 µM, first compound 0.0316 µM
[8] = second compound 0.316 µM, first compound 0.1 µM
[9] = second compound 1 µM, first compound 0.00316 µM
[10] = second compound 1 µM, first compound 0.01 µM
[11] = second compound 1 µM, first compound 0.0316 µM
[12] = second compound 1 µM, first compound 0.1 µM
[13] = second compound 3.16 µM, first compound 0.00316 µM
[14] = second compound 3.16 µM, first compound 0.01 µM
[15] = second compound 3.16 µM, first compound 0.0316 µM
[16] = second compound 3.16 µM, first compound 0.1 µM
[17] = second compound 10 µM, first compound 0.00316 µM
[18] = second compound 10 µM, first compound 0.01 µM
[19] = second compound 10 µM, first compound 0.0316 µM
[20] = second compound 10 µM, first compound 0.1 µM

SMILES: COc1cc(Nc2ncc3c(n2)-c2ccc(Cl)cc2C(c2c(F)cccc2OC)=NC3)ccc1C(=O)O + NC1CCC(NC2CC2c2ccccc2)CC1
- IC50 (second compound 0.1 µM): > 1000 nM
- IC50 (second compound 0.316 µM): > 1000 nM
- IC50 (second compound 1 µM): > 1000 nM
- IC50 (second compound 3.16 µM): > 1000 nM
- IC50 (second compound 10 µM): > 1000 nM
- viability, T/C [1]: 94.8%
- viability, T/C [2]: 107%
- viability, T/C [3]: 122%
- viability, T/C [4]: 116%
- viability, T/C (second compound 0.1 µM, first compound 0.316 µM): 134%
- viability, T/C (second compound 0.1 µM, first compound 1 µM): 121%
- viability, T/C [5]: 99.2%
- viability, T/C [6]: 103%
- viability, T/C [7]: 112%
- viability, T/C [8]: 131%
- viability, T/C (second compound 0.316 µM, first compound 0.316 µM): 123%
- viability, T/C (second compound 0.316 µM, first compound 1 µM): 138%
- viability, T/C [9]: 94.4%
- viability, T/C [10]: 108%
- viability, T/C [11]: 102%
- viability, T/C [12]: 113%
- viability, T/C (second compound 1 µM, first compound 0.316 µM): 126%
- viability, T/C (second compound 1 µM, first compound 1 µM): 119%
- viability, T/C [13]: 95.7%
- viability, T/C [14]: 105%
- viability, T/C [15]: 110%
- viability, T/C [16]: 103%
- viability, T/C (second compound 3.16 µM, first compound 0.316 µM): 128%
- viability, T/C (second compound 3.16 µM, first compound 1 µM): 126%
- viability, T/C [17]: 92.2%
- viability, T/C [18]: 107%
- viability, T/C [19]: 97.6%
- viability, T/C [20]: 116%
- viability, T/C (second compound 10 µM, first compound 0.316 µM): 125%
- viability, T/C (second compound 10 µM, first compound 1 µM): 113%

SMILES: Cn1ncnc1C1c2n[nH]c(=O)c3cc(F)cc(c23)NC1c1ccc(F)cc1 (stereo not given) + NC1CCC(NC2CC2c2ccccc2)CC1
- IC50 (second compound 0.1 µM): > 100 nM
- IC50 (second compound 0.316 µM): > 100 nM
- IC50 (second compound 1 µM): > 100 nM
- IC50 (second compound 3.16 µM): > 100 nM
- IC50 (second compound 10 µM): > 100 nM
- viability, T/C (second compound 0.1 µM, first compound 0.000316 µM): 93.4%
- viability, T/C (second compound 0.1 µM, first compound 0.001 µM): 110%
- viability, T/C [1]: 95.6%
- viability, T/C [2]: 94.8%
- viability, T/C [3]: 98.5%
- viability, T/C [4]: 99.6%
- viability, T/C (second compound 0.316 µM, first compound 0.000316 µM): 100%
- viability, T/C (second compound 0.316 µM, first compound 0.001 µM): 102%
- viability, T/C [5]: 101%
- viability, T/C [6]: 92.8%
- viability, T/C [7]: 93.9%
- viability, T/C [8]: 92.5%
- viability, T/C (second compound 1 µM, first compound 0.000316 µM): 95.5%
- viability, T/C (second compound 1 µM, first compound 0.001 µM): 98.4%
- viability, T/C [9]: 97.4%
- viability, T/C [10]: 98.1%
- viability, T/C [11]: 94.3%
- viability, T/C [12]: 94.4%
- viability, T/C (second compound 3.16 µM, first compound 0.000316 µM): 90.7%
- viability, T/C (second compound 3.16 µM, first compound 0.001 µM): 99.8%
- viability, T/C [13]: 98.3%
- viability, T/C [14]: 88.8%
- viability, T/C [15]: 95.9%
- viability, T/C [16]: 93.9%
- viability, T/C (second compound 10 µM, first compound 0.000316 µM): 97.2%
- viability, T/C (second compound 10 µM, first compound 0.001 µM): 106%
- viability, T/C [17]: 95.9%
- viability, T/C [18]: 104%
- viability, T/C [19]: 94.3%
- viability, T/C [20]: 91.3%

SMILES: NS(=O)(=O)OCC1CC(n2ccc3c(NC4CCc5ccccc54)ncnc32)CC1O (stereo not given) + NC1CCC(NC2CC2c2ccccc2)CC1
- IC50 (second compound 0.1 µM): > 3000 nM
- IC50 (second compound 0.316 µM): > 3000 nM
- IC50 (second compound 1 µM): > 3000 nM
- IC50 (second compound 3.16 µM): > 3000 nM
- IC50 (second compound 10 µM): > 3000 nM
- viability, T/C (second compound 0.1 µM, first compound 0.00949 µM): 109%
- viability, T/C (second compound 0.1 µM, first compound 0.03 µM): 103%
- viability, T/C (second compound 0.1 µM, first compound 0.0949 µM): 79.6%
- viability, T/C (second compound 0.1 µM, first compound 0.3 µM): 89.3%
- viability, T/C (second compound 0.1 µM, first compound 0.949 µM): 84.7%
- viability, T/C (second compound 0.1 µM, first compound 3 µM): 71.4%
- viability, T/C (second compound 0.316 µM, first compound 0.00949 µM): 108%
- viability, T/C (second compound 0.316 µM, first compound 0.03 µM): 104%
- viability, T/C (second compound 0.316 µM, first compound 0.0949 µM): 79.2%
- viability, T/C (second compound 0.316 µM, first compound 0.3 µM): 78%
- viability, T/C (second compound 0.316 µM, first compound 0.949 µM): 78.6%
- viability, T/C (second compound 0.316 µM, first compound 3 µM): 72.7%
- viability, T/C (second compound 1 µM, first compound 0.00949 µM): 103%
- viability, T/C (second compound 1 µM, first compound 0.03 µM): 101%
- viability, T/C (second compound 1 µM, first compound 0.0949 µM): 76.2%
- viability, T/C (second compound 1 µM, first compound 0.3 µM): 81.8%
- viability, T/C (second compound 1 µM, first compound 0.949 µM): 82.7%
- viability, T/C (second compound 1 µM, first compound 3 µM): 77.6%
- viability, T/C (second compound 3.16 µM, first compound 0.00949 µM): 92.5%
- viability, T/C (second compound 3.16 µM, first compound 0.03 µM): 109%
- viability, T/C (second compound 3.16 µM, first compound 0.0949 µM): 77.7%
- viability, T/C (second compound 3.16 µM, first compound 0.3 µM): 80.5%
- viability, T/C (second compound 3.16 µM, first compound 0.949 µM): 76.9%
- viability, T/C (second compound 3.16 µM, first compound 3 µM): 71.6%
- viability, T/C (second compound 10 µM, first compound 0.00949 µM): 102%
- viability, T/C (second compound 10 µM, first compound 0.03 µM): 95.4%
- viability, T/C (second compound 10 µM, first compound 0.0949 µM): 73.6%
- viability, T/C (second compound 10 µM, first compound 0.3 µM): 83.6%
- viability, T/C (second compound 10 µM, first compound 0.949 µM): 78.3%
- viability, T/C (second compound 10 µM, first compound 3 µM): 64.7%
